What was measured:
[1] = system: ERK phosphorylation in MCF10A-RCP cells
Method: Western blot analysis. Whole cell lysates were prepared using RIPA buffer. The proteins were separated by SDS-PAGE and transferred to Hybond-P PVDF membrane (GE Healthcare). Antibodies to RCP (Genway, Catalog Number (CN): 15-288-21574A), β-actin (Sigma, CN: A5441), phospho-Akt (Cell Signaling Technology, CN: 9271), Akt (Cell Signaling Technology, CN: 9272), phospho-Erk (Cell Signaling Technology, CN: 9101), and Erk (Cell Signalling, CN: 9102) were used to probe the membrane, and antibody-protein complex was detected by HRP-conjugated antibodies and ECL (Amersham Biosciences).
For the MAPK inhibition assays, cells were treated with MEK inhibitor U0126 (Promega) overnight in medium with 0.5% serum before being re-plated into 96-well plates.

MCF10A-RCP cells = settings: 30 uM U0126
Method: Cell proliferation and colony formation. Cells were plated at a density of 5000 cells/well in 96-well plates, and cell proliferation was measured in quadruplicate (ie, 4 wells per condition) using WST-1 (Roche) according to the manufacturer's protocol. For the MAPK inhibition assays, cells were treated with MEK inhibitor U0126 (Promega) overnight in medium with 0.5% serum before being re-plated into 96-well plates.

`N#CC(=C(/N)Sc1ccccc1N)/C(C#N)=C(\N)Sc1ccccc1N` [U0126] was tested, and the “RCP-induced phosphorylation of ERK” value ([1]; 30 μM of U0126) was “reduced to baseline”, the ERK phosphorylation status ([1]; range of U0126 concentrations) was “concentration dependent” and the proliferation (MCF10A-RCP cells) was “reduction of proliferation down to control levels”.

Reference: patent US8663915B2, “Methods of controlling tumorigenesis and diagnosing the risk thereof” (Agency for Science, Technology and Research, priority 2007, dated 2014)
